The text below walks through data of US20040054182A1, “1h-imidazopyridine derivatives” (priority 2000, published 2004).

SMILES strings stand for the structures.

The test system of one test is human TNF-alpha. Put plainly: Inhibitory action against TNF-alpha production in LPS-stimulated human PBMCs (sandwich ELISA of culture supernatant). It is filed as cell-based. To be noted: 16 hours. As for the experimental part:
(§1) As an example of the excellent effects of the compounds of the present invention, experimental results of inhibitory actions against production of TNF-alpha and IL-1 beta in human cells will be shown below.
(§2) About 50 mL of whole blood was collected from each adult healthy volunteer by venepuncture, and poured into plastic tubes which containing 170 micro L of Novo-heparin 1000 (produced by Novo-Nordisk). Then, PBMCs (Peripheral Blood Mononuclear Cells) were separated using LeucoPREP™ (produced by Becton Dickinson) lymphocyte separation tube, and cultured with RPMI-1640 medium (produced by Nissui Pharmaceutical Co.) containing 2 mM L-glutamine (produced by Life Technologies), 2.5 U/mL penicillin-2.5 micro g/mL streptomycin solution (produced by Life Technologies) supplemented with 10% fetal calf serum (produced by Intergen Company) at 1×10^6 cells/mL.
(§3) Test compounds were dissolved in distilled ultra-pure water, dimethyl sulfoxide or 0.1 M hydrochloric acid at 20 micro M as far as possible, and then sequentially diluted with saline and used.
(§4) A hundred and eighty micro L of prepared human PBMCs were added to each well of 96-well plate (MicroTest III™ tissue culture plate; produced by Becton Dickinson) containing 10 micro L of adequate concentrations solution of test compounds. Then 30 minutes after, 10 micro L of 20 micro g/mL lipopolysaccharide (LPS) was added to each well, and cells in the well plate were covered with plastic lid and incubated for 16 hours at 37° C. in an atmosphere of 5% CO2.
(§5) The levels of human TNF-alpha and human IL-1 beta in culture supernatant were measured by constructed sandwich enzyme-linked immunosorbent assay method. Ninety-six-well microtiter plates were coated with diluted anti-cytokine antibody (capture/first-antibody). After washing the wells, the culture supernatant was diluted appropriately, added to each well and incubated. Then detection/second-antibody against cytokine and HRP (horseradish peroxidase)-conjugated/third-antibody against detection-antibody were added to wells sequentially, with interposed washing processes. After the final washing process, reaction of calorimetric quantification was started by addition of tetramethylbenzidine solution (produced by DAKO) to each well. After quenching the reaction by addition of 0.5 M sulfuric acid, optical absorbance of each well at 450 nm was measured by M-VmaxTM kinetic microplate reader (produced by Molecular Devices). Concentrations of cytokines were determined by Softmax™ (produced by Molecular Devices) quantification software in comparison with calibration curve derived from corresponding recombinant cytokines as standard. For measurement of human TNF-alpha, monoclonal mouse anti-human TNF-alpha (produced by ENDOGEN), polyclonal rabbit anti-human TNF-alpha (produced by Pharma Biotechnologie Hannover), peroxidase-conjugated donkey anti-rabbit IgG antibodies (produced by Jackson ImmunoRes. Labs.), and recombinant human TNF-alpha (produced by INTERGEN Company) were used for the capture-, detection-, HRP-conjugated-antibodies and the standard for calibration curve, respectively. […]
In general terms: An ELISA detects its analyte on a solid surface through an enzyme-linked reagent.

In another test the test system is human IL-1 beta. Put plainly: Inhibitory action against IL-1 beta production in LPS-stimulated human PBMCs (sandwich ELISA of culture supernatant). Format: cell-based. To be noted: 16 hours. Here is the method:
as §1, §2, §3, §4, §5

[1] abbreviates: administered concentration 0.01 micro mol/L.
Where [2] appears, read: administered concentration 0.03 micro mol/L.
Where [3] appears, read: administered concentration 0.10 micro mol/L.
The mark [4] stands for this setting: administered concentration 0.3 micro mol/L.
The mark [5] stands for this setting: administered concentration 1.0 micro mol/L.

With `FC(F)(F)c1nc2ccccc2c2c1nc(-c1ccc[nH]1)n2CCC1CNCCO1` (stereo not shown) [Example 102, 1-[2-(2-Morpholinyl)ethyl]-2-(2-pyrrolyl)-4-trifluoromethyl-1H-imidazo[4,5-c]-quinoline], the “Inhibitory action against TNF-alpha production in human cells (inhibitory percentages of cytokine production)” value in the test with human TNF-alpha (setting [1]) was determined as 96%; in the test with human TNF-alpha (setting [2]), 84%; with human TNF-alpha (setting [3]) it was 25%; with human TNF-alpha (setting [4]) it was 23%; with human TNF-alpha (setting [5]) it was 27%. The “Inhibitory action against IL-1 beta production in human cells (inhibitory percentages of cytokine production)” value is recorded as 81% in the test on human IL-1 beta (setting [1]); 67% in the test on human IL-1 beta (setting [2]); 48% with human IL-1 beta (setting [3]); 0% in the test with human IL-1 beta (setting [4]); 0% in the test with human IL-1 beta (setting [5]).
